The values that follow come from patent publication US9546381B2, “Use of anticoagulants in the production of recombinant proteins in the milk of transgenic animals” (priority 2010, dated 2017).

Several values for one entry are separate records, joined by “and”; a condition that tells them apart may be missing. Identical values can stand only once. Marks after values point to notes of the source that are not given here.

Data set [1] relates to recombinant human fibrinogen (rhFib). Briefly: ELISA of rhFib concentration in the milk of warfarin-treated transgenic heifers. As to conditions: for rhFib level: ELISA, lines = day, warfarin started on day 1.
For data set [2] the following is noted: for 5 days; cited from earlier work.
The nature of data set [3]: Determination of warfarin dosing in non-transgenic non-lactating cows (PT time, adverse effects). The data set is classed as in vivo, cattle. The protocol: An initial experiment was performed to determine a dose range of warfarin in cattle. […] The doses therein range from 0.012 to 0.57 mg/kg.
An initial baseline Prothombin time (PT time) and Hematocrit (Hct) were determined. For cow #4289 Hct was 38 and PT was 25.9 seconds. For cow #6685 Hct was 27 and PT time was 26.7 seconds. PT time is a laboratory assay that reflects the depression of vitamin K dependent Factors II, -VII and -X. The PT times were used to determine the final dosing. The PT time test that is generally used in the art, looks at coagulation factors Factor I (fibrinogen), Factor II (prothrombin), Factor V, Factor VII and Factor X, that are all involved in clotting. The test measures the time it takes for a patient's blood to clot. […] The Hct value is helpful to determine if the animal is becoming anemic (i.e. blood loss that would not be grossly evident). In general, Hct is not checked unless one is concerned that blood loss is occurring.
Initially a dose necessary to double the baseline PT times was to be determined and then the dose was to be increased to monitor for adverse affects. It was decided that if the PT levels began to be prolonged over 2.5 times baseline, or Hct fell below 15% the dose would be decreased. Likewise, it was held that the dose would be decreased or discontinued if any of the following disorders would appear: hematomas, anemia, epistaxis, hematemesis, hematuria, melena, hemathrosis, hemothrax, weakness or hematochezia, or bleeding within the udder. Therapy with vitamin K1 and whole blood would be initiated if there was evidence of […] bleeding.
Moreover, and for the same reason, pregnant animals were also not treated with warfarin.
The dose was increased by 10 mg/day until a dose of 100 mg/day was given (˜0.14 mg/kg). Then, this dose was maintained for 12 days. […] Therefore the following adjustments were made: First, the animal was sedated with xylazine, and second, blood was only collected from the jugular vein while the animal's head was tightly restrained. The dose was increased to 120 mg/day (˜0.17 mg/kg) for 17 days.
It took 6 days of therapy for the PT times to double. […] For this reason, this dose of approximately 0.18 mg/kg was then considered unsafe for use in the transgenic rhFib cows.

In data set [4] the test system is clots and flakes in the milk of transgenic rhFib cattle. Description: Clot scoring of milk of transgenic rhFib cattle during induced lactation. Details: key to clot scores / clot score: 0: Normal milk; 1: Flakes; 2: Less than 10 clots from the quarter on the CMT paddle; 3: Greater than 10 clots from the quarter on the CMT paddle; 4: Severe visible clots. The data set is classed as in vivo. An excerpt: Recombinant human fibrinogen has been produced in the milk of transgenic cows for some years now. […] To score the level of clotting and to measure any effects, standards were set to determine whether treatment of the cows to reduce clotting was indeed effective. The standards are provided in Table I. Score level 0 is equal to normal milk from non-transgenic cows, whereas score level 4 equals a dramatic level of clotting and the milking machine is unable to extract the milk from the teat. CMT stands for ‘California Mastitis Test’ and is a standard cow side test that screens for the presence of mastitis, a known cause of milk clotting. When a cow is milked, the milk is collected in a so-called CMT paddle, which has four cups corresponding to the four quarters of the udder. To these cups, equal amounts of CMT solution (made up of a detergent to break down cell walls, a compound that reacts with the cellular DNA and a pH indicator; California Mastitis Test kit, TechniVet, Brunswick, Me.) is added after which the solution is swirled. The CMT solution provides an estimate of the number of cells in the milk (inflammatory cells due to infection by mastitis). As the cell content increases the mixture becomes thick and gel-like and the results are based on the appearance of the solutions. ‘Negative’ in the mastitis test means that the mixture remains fluid; ‘suspicious’ means that the mixture becomes slimy or gel like, and ‘positive’ means that the mixture distinctly forms a gel or jelly. […] The lack of mastitis was also confirmed by the fact that in laboratory tests no inflammatory-inducing bacteria were grown from the rhFib transgenic cow milk. Finally the clinical signs of the cows confirmed that infectious mastitis was not the etiology of the clotting. […] The (blue) staining by the CMT solution provided a useful tool to visualize the clots and helped to distinguish between some of the low scores of rate 1 and 2.
A cow's udder has four quarters, each with their own teat. A cow may loose a quarter due to mastitis but still give milk through the remaining quarters. […] Therefore at each milking period, each quarter was given a clot score and recorded on her milk sheet form. The highest score on the paddle for each day was considered the cow's score for that day when complying the clotting data.
With natural lactation, it is common for cattle to develop swelling and edema in their udders around the time of calving and as they “come into milk” during the first few weeks of lactation. This inflammation of the mammary tissue may activate the rhFib and lead to precipitation within the mammary tissue. This then may lead to a decrease in the milk production and difficulty in removing the milk from the gland. It was hypothesized by the inventors that by a non-natural lactation (that is: by a chemical/hormonal lactation induction), this udder swelling and edema would be avoided and the rhFib would not be activated. This would facilitate an easier lactation with minimal precipitation. For this reason, lactation induction was chosen to produce rhFib in cow #13.
After this, all clot scores remained between 0-1. […] This dose was maintained during day 17 to day 31 and all clot scores still remained between 0-1.
Seven transgenic rhFib cattle were induced to lactate using an estradiol-progesterone alcohol solution and dexamethasone injections as outlined above. From these seven animals, after an initial 34 days of milking, five transgenic cattle were selected to complete an ongoing 16 week lactation period (146 days in total). During this 16 week period 5 liters of milk was saved per animal per week for future production purposes. If an animal was to develop consistent clotting within this production period then a treatment trial with warfarin would begin. Data was collected on these animals to see what level of clot scores they generally reached. […]

Data set [5] concerns clots and flakes in the milk of rhFib transgenic cattle. Description: Clot scoring of milk of rhFib transgenic cow and heifers during natural lactation. The data set is classed as in vivo. As to conditions: all five animals. An excerpt:
Recombinant human fibrinogen has been produced in the milk of transgenic cows for some years now. […] To score the level of clotting and to measure any effects, standards were set to determine whether treatment of the cows to reduce clotting was indeed effective. The standards are provided in Table I. Score level 0 is equal to normal milk from non-transgenic cows, whereas score level 4 equals a dramatic level of clotting and the milking machine is unable to extract the milk from the teat. CMT stands for ‘California Mastitis Test’ and is a standard cow side test that screens for the presence of mastitis, a known cause of milk clotting. When a cow is milked, the milk is collected in a so-called CMT paddle, which has four cups corresponding to the four quarters of the udder. To these cups, equal amounts of CMT solution (made up of a detergent to break down cell walls, a compound that reacts with the cellular DNA and a pH indicator; California Mastitis Test kit, TechniVet, Brunswick, Me.) is added after which the solution is swirled. The CMT solution provides an estimate of the number of cells in the milk (inflammatory cells due to infection by mastitis). […]
A cow's udder has four quarters, each with their own teat. […] Therefore at each milking period, each quarter was given a clot score and recorded on her milk sheet form. […]

For data set [6], the system named is clot formation in the milk of a transgenic cow. Description: Heparin therapy in one transgenic cow, clot scores. The data set is classed as in vivo. On the procedure:
The inventors also used heparin therapy in one transgenic cow to evaluate if it would prevent clot formation at a dose of 150 IU/kg SQ twice a day, for 5 days. While when the heparin was administered to this cow, the clot scores decreased. […] However, due to the high costs of using heparin, that treatment was not further investigated. Other anticoagulants can be used but many have the disadvantage that they need to be injected intravenously or subcutaneously rather than be or administered orally.

Turning to `CC(=O)CC(c1ccccc1)c1c(O)c2ccccc2oc1=O` (centres unmarked) [warfarin], the rhFib level in data set [1] (heifer 462) is 1.3 mg/ml raw milk and 2.09 mg/ml raw milk; in data set [1] (heifer 463), 1.61 mg/ml raw milk; in data set [1] (heifer 474), 0.41 mg/ml raw milk and 0.58 mg/ml raw milk. Besides, the “concentration of rhFib in milk over time upon warfarin treatment” value in data set [1] (three warfarin-treated heifers, while clot score levels drop) is “seem to increase”. In addition, in data set [2], the LD50 for cattle is on record as 200 mg/kg/day. The adverse effects result in data set [3] (cow #4289, 120 mg/day (~0.17 mg/kg) orally for 17 days) is listed as “no adverse effects were observed”; in data set [3] (cow #4289, 130 mg/day (~0.18 mg/kg) orally for 6 days, animal euthanized), “developed a bleeding hematoma over the shoulder/thorax”; in data set [3] (cow #6685, 100 mg/day (~0.18 mg/kg) orally for 14 days) it was “No adverse affects were found”; in data set [4] (cow #13, 0.12 or 0.13 mg/kg per day), “No adverse effects were observed”. Also, the “days of therapy for the PT times to double” value in data set [3] (cow #6685, 100 mg/day (~0.18 mg/kg)) worked out at 6 days. Besides, the clot scores in data set [4] (#462 and #463, dry off period after warfarin stopped) is recorded as 3 (Greater than 10 clots from the quarter on the CMT paddle); in data set [4] (#462 at day 149, after warfarin stopped at day 142, milk started to plug the filters), 1; in data set [4] (#463 at day 161, single quarter, after warfarin stopped at day 142) it was 1; in data set [4] (cow #13, 0.12 mg/kg, day 17 to day 31) it was 0-1; in data set [4] (cow #13, 7 days after warfarin therapy was re-initiated), 1; in data set [4] (cow #13, 18 days after warfarin was again discontinued, until dried off), 2 (Less than 10 clots from the quarter on the CMT paddle). Besides, the clot scores was 0-1 in data set [4] (cow #13, induced lactation, 0.13 mg/kg orally once a day from Time 0); 0 in data set [4] (cow #13, over the next 11 days after re-initiation); 2 (Less than 10 clots from the quarter on the CMT paddle) in data set [4] (cow #13, warfarin discontinued for 19 days); 1 in data set [4] (three heifers #462, #463, #474, within a week after warfarin therapy was initiated). The molecule further gave a clot score in data set [4] (#462 at day 125, single score during treatment) of 1. In addition, in data set [4] (#474, stopped at day 142 of milking), the “time until clot scores increased to level 3 after warfarin was stopped” value was at most 3 days. The “Highest clot score, #474 Frey” value in data set [4] (after discontinuation of warfarin on day 142 of lactation, lines = week of lactation) is reported as 3* (Greater than 10 clots from the quarter on the CMT paddle). The “clot scores reached with warfarin treatment” value in data set [4] (cow #13, within a week (conclusion)) is 0-1. Further, in data set [4] (three rhFib-transgenic heifers, 0.10 mg/kg daily, PT monitored weekly), the “PT times equal to or above twice the baseline value” was “did not occur”. Also, in data set [5] (0.10 to max 0.15 mg/kg), the “adverse reactions from the warfarin treatment” value is “did not show any adverse reactions”. The highest clot scores in data set [5] (after a few days of warfarin 0.10 mg/kg) was 0-1.

Consider heparin, for which the clot scores result in data set [6] (150 IU/kg SQ twice a day for 5 days, during administration) was “decreased”; in data set [6] (after heparin therapy was discontinued), “remained low and decreased further with time”.
